{"source": "paper PMC10004634", "about": "(PLOS ONE, 2023)", "experiment_in_all_cases": "biochemical", "design_in_all_cases": "KINOMEscan scanMAX competition binding, DNA-tagged kinases, qPCR read-out, percent control at 300 nM", "key": {"[1]": {"target": "T1, ABL1(F317L)-phosphorylated (Homo sapiens, UniProt P00519, F317L)", "T1 construct": "phosphorylated"}, "[2]": {"target": "DMPK (Homo sapiens, UniProt Q09013)"}, "[3]": {"target": "T2, RSK1(Kin.Dom.2-C-terminal) (Homo sapiens, UniProt Q15418)", "T2 construct": "gene RPS6KA1; Kin.Dom.2-C-terminal"}, "[4]": {"target": "ANKK1 (Homo sapiens, UniProt Q8NFD2)", "sequence (Q8NFD2 whole entry)": "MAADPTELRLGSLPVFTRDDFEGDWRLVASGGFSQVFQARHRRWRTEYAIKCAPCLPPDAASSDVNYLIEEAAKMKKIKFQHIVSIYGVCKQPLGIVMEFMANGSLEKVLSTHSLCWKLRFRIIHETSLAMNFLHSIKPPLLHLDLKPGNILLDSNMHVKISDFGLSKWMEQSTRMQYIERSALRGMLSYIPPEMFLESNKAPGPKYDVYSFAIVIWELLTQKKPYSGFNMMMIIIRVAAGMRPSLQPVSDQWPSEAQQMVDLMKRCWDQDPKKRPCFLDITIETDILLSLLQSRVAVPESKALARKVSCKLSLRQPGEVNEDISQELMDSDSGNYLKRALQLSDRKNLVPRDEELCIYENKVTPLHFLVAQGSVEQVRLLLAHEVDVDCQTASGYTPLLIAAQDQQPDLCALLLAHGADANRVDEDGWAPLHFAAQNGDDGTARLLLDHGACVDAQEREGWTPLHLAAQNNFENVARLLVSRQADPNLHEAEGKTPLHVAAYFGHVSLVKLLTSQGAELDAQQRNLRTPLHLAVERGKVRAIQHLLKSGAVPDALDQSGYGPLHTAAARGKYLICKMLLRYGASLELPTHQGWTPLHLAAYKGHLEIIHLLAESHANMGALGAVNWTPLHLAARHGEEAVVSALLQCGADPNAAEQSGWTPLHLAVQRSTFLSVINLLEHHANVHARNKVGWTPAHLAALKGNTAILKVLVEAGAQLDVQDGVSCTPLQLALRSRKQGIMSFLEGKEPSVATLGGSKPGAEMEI"}, "[5]": {"target": "CAMK2B (Homo sapiens, UniProt Q13554)"}, "[6]": {"target": "CAMKK2 (Homo sapiens, UniProt Q96RR4)"}, "[7]": {"target": "EPHB1 (Homo sapiens, UniProt P54762)"}, "[8]": {"target": "FES (Homo sapiens, UniProt P07332)"}, "[9]": {"target": "FLT3(D835Y) (Homo sapiens, UniProt P36888, D835Y)"}, "[10]": {"target": "KIT(V559D,V654A) (Homo sapiens, UniProt P10721, V559D/V654A)"}, "[11]": {"target": "LIMK2 (Homo sapiens, UniProt P53671)", "sequence (P53671 whole entry)": "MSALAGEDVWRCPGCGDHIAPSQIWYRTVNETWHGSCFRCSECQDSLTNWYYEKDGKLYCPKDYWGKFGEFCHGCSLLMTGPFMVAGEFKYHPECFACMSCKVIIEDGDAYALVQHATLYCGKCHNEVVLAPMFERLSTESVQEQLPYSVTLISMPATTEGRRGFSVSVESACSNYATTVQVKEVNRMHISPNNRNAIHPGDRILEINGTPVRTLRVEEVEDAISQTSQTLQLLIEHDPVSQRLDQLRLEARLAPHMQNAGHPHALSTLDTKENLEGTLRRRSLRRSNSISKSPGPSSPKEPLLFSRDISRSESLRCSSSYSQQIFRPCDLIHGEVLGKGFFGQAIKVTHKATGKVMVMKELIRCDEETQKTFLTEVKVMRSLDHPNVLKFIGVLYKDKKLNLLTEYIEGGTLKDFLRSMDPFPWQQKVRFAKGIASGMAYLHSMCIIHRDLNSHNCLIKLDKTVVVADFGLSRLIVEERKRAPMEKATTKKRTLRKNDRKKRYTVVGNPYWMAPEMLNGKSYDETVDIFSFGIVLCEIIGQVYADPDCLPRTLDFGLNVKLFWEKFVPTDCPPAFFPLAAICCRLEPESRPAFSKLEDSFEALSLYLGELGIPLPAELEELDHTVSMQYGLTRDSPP"}, "[12]": {"target": "MAP3K2 (Homo sapiens, UniProt Q9Y2U5)", "sequence (Q9Y2U5 whole entry)": "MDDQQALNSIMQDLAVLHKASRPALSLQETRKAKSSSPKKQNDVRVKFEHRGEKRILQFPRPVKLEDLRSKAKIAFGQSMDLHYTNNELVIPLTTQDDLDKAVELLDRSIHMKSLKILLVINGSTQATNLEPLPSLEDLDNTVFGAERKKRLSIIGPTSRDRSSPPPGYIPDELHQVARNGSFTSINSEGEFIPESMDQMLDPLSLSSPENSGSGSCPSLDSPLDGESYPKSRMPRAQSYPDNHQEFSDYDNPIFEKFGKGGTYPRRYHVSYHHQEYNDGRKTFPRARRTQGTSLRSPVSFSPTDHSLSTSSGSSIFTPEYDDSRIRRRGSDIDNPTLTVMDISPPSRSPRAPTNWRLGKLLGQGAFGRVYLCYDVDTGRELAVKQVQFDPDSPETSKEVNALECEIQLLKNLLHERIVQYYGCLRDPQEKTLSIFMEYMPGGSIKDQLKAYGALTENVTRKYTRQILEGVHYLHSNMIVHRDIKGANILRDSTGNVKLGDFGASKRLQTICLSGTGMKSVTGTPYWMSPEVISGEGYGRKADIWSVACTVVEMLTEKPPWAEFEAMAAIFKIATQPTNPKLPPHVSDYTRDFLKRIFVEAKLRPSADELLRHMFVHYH"}, "[13]": {"target": "MAP3K4 (Homo sapiens, UniProt Q9Y6R4)", "sequence (Q9Y6R4 whole entry)": "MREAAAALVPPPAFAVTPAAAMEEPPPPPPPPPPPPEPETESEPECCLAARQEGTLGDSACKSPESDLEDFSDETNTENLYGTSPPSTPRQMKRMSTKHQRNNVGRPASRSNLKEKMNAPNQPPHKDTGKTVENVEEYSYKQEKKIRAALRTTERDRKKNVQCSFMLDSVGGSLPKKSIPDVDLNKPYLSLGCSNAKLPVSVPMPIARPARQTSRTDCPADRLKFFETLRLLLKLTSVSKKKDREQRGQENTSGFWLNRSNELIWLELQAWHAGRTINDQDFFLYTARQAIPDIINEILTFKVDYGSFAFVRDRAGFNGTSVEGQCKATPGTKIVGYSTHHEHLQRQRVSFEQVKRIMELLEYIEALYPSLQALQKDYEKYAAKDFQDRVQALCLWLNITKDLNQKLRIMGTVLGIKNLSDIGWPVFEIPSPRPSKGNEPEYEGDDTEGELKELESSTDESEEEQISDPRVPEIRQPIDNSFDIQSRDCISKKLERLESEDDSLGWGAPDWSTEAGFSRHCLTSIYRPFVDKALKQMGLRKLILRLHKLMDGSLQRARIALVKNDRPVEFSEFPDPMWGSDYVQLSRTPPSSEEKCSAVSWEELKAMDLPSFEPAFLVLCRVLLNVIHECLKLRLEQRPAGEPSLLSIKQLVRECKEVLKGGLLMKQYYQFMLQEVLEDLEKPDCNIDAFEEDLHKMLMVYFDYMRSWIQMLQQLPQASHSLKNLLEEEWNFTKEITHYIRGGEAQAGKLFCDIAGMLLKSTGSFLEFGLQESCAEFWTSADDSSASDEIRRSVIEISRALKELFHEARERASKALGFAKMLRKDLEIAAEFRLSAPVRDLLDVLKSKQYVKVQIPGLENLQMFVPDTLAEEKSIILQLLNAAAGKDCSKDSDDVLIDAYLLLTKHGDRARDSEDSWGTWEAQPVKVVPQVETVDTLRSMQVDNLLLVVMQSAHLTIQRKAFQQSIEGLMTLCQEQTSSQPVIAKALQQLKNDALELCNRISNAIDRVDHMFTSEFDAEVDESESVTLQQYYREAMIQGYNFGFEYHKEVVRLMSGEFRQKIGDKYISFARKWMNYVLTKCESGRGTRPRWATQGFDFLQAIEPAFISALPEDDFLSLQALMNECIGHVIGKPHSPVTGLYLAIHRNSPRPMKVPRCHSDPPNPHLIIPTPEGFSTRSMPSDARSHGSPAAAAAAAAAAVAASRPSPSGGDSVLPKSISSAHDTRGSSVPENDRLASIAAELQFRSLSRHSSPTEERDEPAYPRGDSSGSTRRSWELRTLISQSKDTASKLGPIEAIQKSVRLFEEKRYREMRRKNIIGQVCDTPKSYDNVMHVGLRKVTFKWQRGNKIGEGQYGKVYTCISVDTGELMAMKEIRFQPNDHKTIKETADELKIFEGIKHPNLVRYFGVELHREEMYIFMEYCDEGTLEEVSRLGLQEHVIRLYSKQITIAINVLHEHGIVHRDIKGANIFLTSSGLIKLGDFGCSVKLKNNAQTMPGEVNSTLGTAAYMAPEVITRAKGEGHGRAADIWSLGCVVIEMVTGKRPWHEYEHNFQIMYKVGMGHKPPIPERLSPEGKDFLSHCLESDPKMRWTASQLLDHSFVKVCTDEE"}, "[14]": {"target": "MAST1 (Homo sapiens, UniProt Q9Y2H9)"}, "[15]": {"target": "MET(Y1235D) (Homo sapiens, UniProt P08581, Y1235D)"}, "[16]": {"target": "T3, MLK1 (Homo sapiens, UniProt P80192)", "T3 construct": "gene MAP3K9"}, "[17]": {"target": "T4, NIM1 (Homo sapiens, UniProt Q8IY84)", "T4 construct": "gene NIM1K"}, "[18]": {"target": "T5, RSK3(Kin.Dom.1-N-terminal) (Homo sapiens, UniProt Q15349)", "T5 construct": "gene RPS6KA2; Kin.Dom.1-N-terminal", "T5 sequence (Q15349 whole entry)": "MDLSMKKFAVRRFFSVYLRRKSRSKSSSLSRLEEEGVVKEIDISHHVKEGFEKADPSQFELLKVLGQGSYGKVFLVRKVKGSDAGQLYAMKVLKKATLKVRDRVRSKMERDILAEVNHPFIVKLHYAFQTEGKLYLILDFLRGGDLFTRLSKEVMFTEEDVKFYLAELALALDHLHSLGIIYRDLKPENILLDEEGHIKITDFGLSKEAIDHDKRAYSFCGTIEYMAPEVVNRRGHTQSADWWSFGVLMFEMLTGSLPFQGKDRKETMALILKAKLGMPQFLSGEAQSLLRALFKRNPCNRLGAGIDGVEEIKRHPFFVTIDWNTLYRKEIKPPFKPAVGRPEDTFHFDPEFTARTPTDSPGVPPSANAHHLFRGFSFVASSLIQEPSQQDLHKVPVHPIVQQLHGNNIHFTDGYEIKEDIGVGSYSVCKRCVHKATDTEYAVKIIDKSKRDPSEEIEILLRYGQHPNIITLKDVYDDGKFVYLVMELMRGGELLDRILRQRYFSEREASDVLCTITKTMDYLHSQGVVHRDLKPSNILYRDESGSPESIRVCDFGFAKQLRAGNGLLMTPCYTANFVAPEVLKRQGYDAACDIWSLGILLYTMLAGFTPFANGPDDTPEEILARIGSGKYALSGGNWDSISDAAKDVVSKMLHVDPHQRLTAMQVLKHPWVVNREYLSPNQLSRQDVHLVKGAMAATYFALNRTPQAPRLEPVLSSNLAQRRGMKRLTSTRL"}, "[19]": {"target": "T6, TAK1 (Homo sapiens, UniProt O43318)", "T6 construct": "gene MAP3K7"}, "[20]": {"target": "T7, YSK4 (Homo sapiens, UniProt Q56UN5)", "T7 construct": "gene MAP3K19"}, "[21]": {"target": "T8, p38-beta (Homo sapiens, UniProt Q15759)", "T8 construct": "gene MAPK11", "T8 sequence (Q15759 whole entry)": "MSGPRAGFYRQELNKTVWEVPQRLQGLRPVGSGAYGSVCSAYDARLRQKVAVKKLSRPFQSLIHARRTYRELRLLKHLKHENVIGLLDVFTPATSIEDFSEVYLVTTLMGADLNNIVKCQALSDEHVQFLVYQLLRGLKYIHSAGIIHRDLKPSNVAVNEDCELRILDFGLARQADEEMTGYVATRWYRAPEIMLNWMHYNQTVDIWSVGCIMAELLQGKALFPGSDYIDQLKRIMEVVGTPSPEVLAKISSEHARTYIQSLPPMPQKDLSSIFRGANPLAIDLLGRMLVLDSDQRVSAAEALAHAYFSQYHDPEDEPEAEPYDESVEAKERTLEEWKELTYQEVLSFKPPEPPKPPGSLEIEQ"}, "[22]": {"target": "SRPK1 (Homo sapiens, UniProt Q96SB4)"}, "[23]": {"settings": "read-out: Percent control / Tirabrutinib"}, "[24]": {"settings": "read-out: Percent control / Zanubrutinib"}, "[25]": {"settings": "read-out: Percent control / Acalabrutinib"}, "[26]": {"settings": "read-out: Percent control / Ibrutinib"}}, "note": "Read-outs that look alike come from different tables or passages of the source.", "data": [{"smiles": "CC#CC(=O)N1CC[C@@H](n2c(=O)n(-c3ccc(Oc4ccccc4)cc3)c3c(N)ncnc32)C1", "note": "[Tirabrutinib]", "values": [{"measurement": "remaining binding at 0.3 µM", "setting": "[1]; [23]", "value": 57, "unit": "%"}, {"measurement": "remaining binding at 0.3 µM", "setting": "[2]; [23]", "value": 93, "unit": "%"}, {"measurement": "remaining binding at 0.3 µM", "setting": "[3]; [23]", "value": 88, "unit": "%"}]}, {"smiles": "C=CC(=O)N1CCC([C@@H]2CCNc3c(C(N)=O)c(-c4ccc(Oc5ccccc5)cc4)nn32)CC1", "note": "[Zanubrutinib]", "values": [{"measurement": "remaining binding at 0.3 µM", "setting": "[4]; [24]", "value": 100, "unit": "%"}, {"measurement": "remaining binding at 0.3 µM", "setting": "[5]; [24]", "value": 68, "unit": "%"}, {"measurement": "remaining binding at 0.3 µM", "setting": "[6]; [24]", "value": 87, "unit": "%"}, {"measurement": "remaining binding at 0.3 µM", "setting": "[2]; [24]", "value": 90, "unit": "%"}, {"measurement": "remaining binding at 0.3 µM", "setting": "[7]; [24]", "value": 96, "unit": "%"}, {"measurement": "remaining binding at 0.3 µM", "setting": "[8]; [24]", "value": 100, "unit": "%"}, {"measurement": "remaining binding at 0.3 µM", "setting": "[9]; [24]", "value": 47, "unit": "%"}, {"measurement": "remaining binding at 0.3 µM", "setting": "[10]; [24]", "value": 90, "unit": "%"}, {"measurement": "remaining binding at 0.3 µM", "setting": "[11]; [24]", "value": 92, "unit": "%"}, {"measurement": "remaining binding at 0.3 µM", "setting": "[12]; [24]", "value": 85, "unit": "%"}, {"measurement": "remaining binding at 0.3 µM", "setting": "[13]; [24]", "value": 75, "unit": "%"}, {"measurement": "remaining binding at 0.3 µM", "setting": "[14]; [24]", "value": 100, "unit": "%"}, {"measurement": "remaining binding at 0.3 µM", "setting": "[15]; [24]", "value": 88, "unit": "%"}, {"measurement": "remaining binding at 0.3 µM", "setting": "[16]; [24]", "value": 84, "unit": "%"}, {"measurement": "remaining binding at 0.3 µM", "setting": "[17]; [24]", "value": 97, "unit": "%"}, {"measurement": "remaining binding at 0.3 µM", "setting": "[3]; [24]", "value": 92, "unit": "%"}, {"measurement": "remaining binding at 0.3 µM", "setting": "[18]; [24]", "value": 100, "unit": "%"}, {"measurement": "remaining binding at 0.3 µM", "setting": "[19]; [24]", "value": 83, "unit": "%"}, {"measurement": "remaining binding at 0.3 µM", "setting": "[20]; [24]", "value": 100, "unit": "%"}, {"measurement": "remaining binding at 0.3 µM", "setting": "[21]; [24]", "value": 82, "unit": "%"}]}, {"smiles": "CC#CC(=O)N1CCC[C@H]1c1nc(-c2ccc(C(=O)Nc3ccccn3)cc2)c2c(N)nccn12", "note": "[Acalabrutinib]", "values": [{"measurement": "remaining binding at 0.3 µM", "setting": "[1]; [25]", "value": 81, "unit": "%"}, {"measurement": "remaining binding at 0.3 µM", "setting": "[4]; [25]", "value": 58, "unit": "%"}, {"measurement": "remaining binding at 0.3 µM", "setting": "[6]; [25]", "value": 97, "unit": "%"}, {"measurement": "remaining binding at 0.3 µM", "setting": "[7]; [25]", "value": 93, "unit": "%"}, {"measurement": "remaining binding at 0.3 µM", "setting": "[8]; [25]", "value": 90, "unit": "%"}, {"measurement": "remaining binding at 0.3 µM", "setting": "[9]; [25]", "value": 82, "unit": "%"}, {"measurement": "remaining binding at 0.3 µM", "setting": "[10]; [25]", "value": 94, "unit": "%"}, {"measurement": "remaining binding at 0.3 µM", "setting": "[11]; [25]", "value": 96, "unit": "%"}, {"measurement": "remaining binding at 0.3 µM", "setting": "[12]; [25]", "value": 97, "unit": "%"}, {"measurement": "remaining binding at 0.3 µM", "setting": "[13]; [25]", "value": 78, "unit": "%"}, {"measurement": "remaining binding at 0.3 µM", "setting": "[14]; [25]", "value": 87, "unit": "%"}, {"measurement": "remaining binding at 0.3 µM", "setting": "[15]; [25]", "value": 86, "unit": "%"}, {"measurement": "remaining binding at 0.3 µM", "setting": "[16]; [25]", "value": 92, "unit": "%"}, {"measurement": "remaining binding at 0.3 µM", "setting": "[17]; [25]", "value": 99, "unit": "%"}, {"measurement": "remaining binding at 0.3 µM", "setting": "[18]; [25]", "value": 85, "unit": "%"}, {"measurement": "remaining binding at 0.3 µM", "setting": "[22]; [25]", "value": 84, "unit": "%"}, {"measurement": "remaining binding at 0.3 µM", "setting": "[19]; [25]", "value": 86, "unit": "%"}, {"measurement": "remaining binding at 0.3 µM", "setting": "[20]; [25]", "value": 74, "unit": "%"}]}, {"smiles": "C=CC(=O)N1CCC[C@@H](n2nc(-c3ccc(Oc4ccccc4)cc3)c3c(N)ncnc32)C1", "note": "[Ibrutinib]", "values": [{"measurement": "remaining binding at 0.3 µM", "setting": "[5]; [26]", "value": 90, "unit": "%"}, {"measurement": "remaining binding at 0.3 µM", "setting": "[22]; [26]", "value": 85, "unit": "%"}, {"measurement": "remaining binding at 0.3 µM", "setting": "[21]; [26]", "value": 85, "unit": "%"}]}]}
